Reference: ChEMBL document CHEMBL1137593, “Identification and optimisation of a series of substituted 5-pyridin-2-yl-thiophene-2-hydroxamic acids as potent histone deacetylase (HDAC) inhibitors” (Bioorg Med Chem Lett, 2007)
pIC50: −log10 of the molar value.

Assays:
Histone deacetylase 1 = Histone deacetylase 1 (Homo sapiens, UniProt Q13547); assay: Inhibition of HDAC activity measured by HDAC Fluorescent Activity Assay (mean of two experiments); assay type: functional
MCF7 = assay: Inhibition of MCF7 cell proliferation (mean of two experiments); assay type: functional, cell-based; details: Homo sapiens
MDA-MB-231 = assay: cells; assay type: functional, cell-based; details: Homo sapiens
Description: Inhibition of MDA-MB-231 cell proliferation (mean of two experiments)

HCT-116 = assay: cells; assay type: functional, cell-based; details: Homo sapiens;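 also: inhibition of HCT116 cell growth as proliferation read-out, each value averaged over two experiments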
Description: Inhibition of HCT116 cell proliferation (mean of two experiments)

[1] = AUC after i.p. dosing at 5 mg kg-1; assay type: ADME, organism-based; set-up: dose 5 mg kg-1, route intraperitoneal; details: mouse, plasma, ip
CYP2D6 = CYP2D6 (Homo sapiens, UniProt P10635); assay: Percent inhibition of CYP450 2D6 at 1uM concentration; assay type: ADME
Chain of CYP2D6 (P10635 whole entry): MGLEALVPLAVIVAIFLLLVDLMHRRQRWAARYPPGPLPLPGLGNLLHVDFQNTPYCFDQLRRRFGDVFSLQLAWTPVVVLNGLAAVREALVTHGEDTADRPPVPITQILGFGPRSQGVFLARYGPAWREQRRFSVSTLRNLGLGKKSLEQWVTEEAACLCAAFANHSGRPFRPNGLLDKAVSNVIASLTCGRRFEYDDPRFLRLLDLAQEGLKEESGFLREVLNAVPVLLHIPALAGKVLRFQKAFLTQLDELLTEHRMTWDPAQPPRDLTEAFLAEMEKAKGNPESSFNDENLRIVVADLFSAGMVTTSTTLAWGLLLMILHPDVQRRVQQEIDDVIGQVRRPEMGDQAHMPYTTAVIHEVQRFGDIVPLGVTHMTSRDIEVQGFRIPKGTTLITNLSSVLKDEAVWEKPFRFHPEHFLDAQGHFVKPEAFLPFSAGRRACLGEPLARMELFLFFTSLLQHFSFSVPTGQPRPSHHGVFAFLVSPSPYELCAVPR

[2] = (§1) AUC after oral dosing at 5 mg kg-1; assay type: ADME, organism-based; set-up: dose 5 mg kg-1, route oral; details: rat, plasma
CYP2C19 = CYP2C19 (Homo sapiens, UniProt P33261); assay: Percent inhibition of CYP450 2C19 at 1 uM concentration; assay type: ADME
Chain of CYP2C19 (P33261 whole entry): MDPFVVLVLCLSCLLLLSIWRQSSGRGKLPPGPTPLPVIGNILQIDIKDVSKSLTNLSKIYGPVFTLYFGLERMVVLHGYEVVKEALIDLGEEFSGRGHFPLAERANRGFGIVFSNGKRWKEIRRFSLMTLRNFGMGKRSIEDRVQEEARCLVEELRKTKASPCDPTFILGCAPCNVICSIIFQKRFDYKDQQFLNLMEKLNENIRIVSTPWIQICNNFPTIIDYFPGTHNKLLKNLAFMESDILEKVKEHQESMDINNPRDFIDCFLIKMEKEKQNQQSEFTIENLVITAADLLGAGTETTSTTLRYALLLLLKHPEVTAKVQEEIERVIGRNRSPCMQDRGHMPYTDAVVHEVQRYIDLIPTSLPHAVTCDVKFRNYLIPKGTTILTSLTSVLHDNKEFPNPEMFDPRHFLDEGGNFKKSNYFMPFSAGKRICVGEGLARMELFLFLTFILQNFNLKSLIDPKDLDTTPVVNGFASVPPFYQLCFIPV

[3] = Bioavailability after i.p. dosing at 5 mg kg-1; assay type: ADME, organism-based; details: mouse, in vivo, ip
[4] = Half life after i.v. dosing at 1 mg kg-1; assay type: ADME, organism-based; set-up: dose 1 mg kg-1, route intravenous; details: in vivo, iv
[5] = Steady state volume of distribution (Vdss) after i.v. dosing at 1 mg kg-1; assay type: ADME, organism-based; set-up: dose 1 mg kg-1, route intravenous; details: in vivo, iv, read-out: Vdss
CYP2C9 = CYP2C9 (Homo sapiens, UniProt P11712); assay: Percent inhibition of CYP450 2C9 at 1 uM concentration; assay type: ADME
Chain of CYP2C9 (P11712 whole entry): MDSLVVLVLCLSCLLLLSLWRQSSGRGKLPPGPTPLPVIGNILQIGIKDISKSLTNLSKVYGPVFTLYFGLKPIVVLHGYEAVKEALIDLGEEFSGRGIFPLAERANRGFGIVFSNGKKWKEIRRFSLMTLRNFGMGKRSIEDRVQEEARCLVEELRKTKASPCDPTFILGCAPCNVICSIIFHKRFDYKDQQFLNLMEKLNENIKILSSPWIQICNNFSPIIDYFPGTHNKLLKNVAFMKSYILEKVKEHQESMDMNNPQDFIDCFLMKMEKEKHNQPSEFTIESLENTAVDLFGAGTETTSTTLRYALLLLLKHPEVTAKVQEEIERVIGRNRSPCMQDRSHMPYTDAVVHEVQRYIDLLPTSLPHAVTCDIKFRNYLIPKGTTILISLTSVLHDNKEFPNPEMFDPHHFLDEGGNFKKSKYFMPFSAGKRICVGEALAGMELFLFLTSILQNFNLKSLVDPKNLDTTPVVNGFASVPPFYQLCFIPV

[6] = Oral bioavailability after oral dosing at 5 mg kg-1; assay type: ADME, organism-based; details: in vivo
[7] = Clearance after i.v. dosing at 1 mg kg-1; assay type: ADME, organism-based; set-up: dose 1 mg kg-1, route intravenous; details: in vivo, iv
[8] = Microsome stability: percent compound remaining; assay type: ADME; details: microsomes
[9] = as §1; assay type: ADME, organism-based, Plasma; set-up: dose 5 mg kg-1, route oral; details: mouse, plasma
[10] = Permeability (Papp) run from pH 6.5-7.4; assay type: ADME, cell-based; details: human, Caco-2, pH 6.5
CYP1A2 = molecular target: T1, CYP1A2 (Homo sapiens, UniProt P05177); assay: Percent inhibition of CYP450 1A2 at 1 uM concentration; assay type: ADME
T1 sequence (P05177 whole entry): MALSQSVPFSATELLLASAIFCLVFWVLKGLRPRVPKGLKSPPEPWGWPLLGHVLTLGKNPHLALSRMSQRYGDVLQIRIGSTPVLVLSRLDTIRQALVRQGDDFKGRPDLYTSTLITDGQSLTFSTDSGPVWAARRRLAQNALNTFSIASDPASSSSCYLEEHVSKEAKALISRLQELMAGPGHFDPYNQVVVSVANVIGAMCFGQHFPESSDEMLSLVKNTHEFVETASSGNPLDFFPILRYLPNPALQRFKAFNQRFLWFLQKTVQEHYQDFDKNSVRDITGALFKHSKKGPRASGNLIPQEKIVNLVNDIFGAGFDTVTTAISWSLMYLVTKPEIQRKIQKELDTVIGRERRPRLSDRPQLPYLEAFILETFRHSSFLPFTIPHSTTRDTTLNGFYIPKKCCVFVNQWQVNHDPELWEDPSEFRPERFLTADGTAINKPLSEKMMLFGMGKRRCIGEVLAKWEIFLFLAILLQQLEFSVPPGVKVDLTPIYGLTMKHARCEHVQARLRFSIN

[11] = Hepatocyte stability; assay type: ADME, cell-based; details: hepatocytes

Chain of Histone deacetylase 1 (Q13547 whole entry): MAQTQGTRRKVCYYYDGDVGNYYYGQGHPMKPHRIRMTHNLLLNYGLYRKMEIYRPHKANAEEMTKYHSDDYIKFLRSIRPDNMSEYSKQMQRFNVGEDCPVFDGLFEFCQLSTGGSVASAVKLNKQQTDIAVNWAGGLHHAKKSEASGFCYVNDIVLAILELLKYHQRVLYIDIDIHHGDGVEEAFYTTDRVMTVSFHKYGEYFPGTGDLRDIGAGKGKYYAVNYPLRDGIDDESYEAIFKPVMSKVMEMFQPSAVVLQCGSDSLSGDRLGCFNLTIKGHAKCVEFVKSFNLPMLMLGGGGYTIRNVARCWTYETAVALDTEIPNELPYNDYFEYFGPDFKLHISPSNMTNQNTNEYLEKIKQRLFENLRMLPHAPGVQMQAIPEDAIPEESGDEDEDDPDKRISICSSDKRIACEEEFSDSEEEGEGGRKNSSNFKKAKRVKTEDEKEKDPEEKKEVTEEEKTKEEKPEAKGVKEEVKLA

`O=C(NO)c1ccc(-c2cccc(CNCCc3ccccc3)n2)s1` gave a pIC50 (Histone deacetylase 1) of 6.24 and a pIC50 (MCF7) of 5.42.

`O=C(NO)c1ccc(-c2ccc(CNCc3ccc(Cl)cc3)cn2)s1` gave a pIC50 (Histone deacetylase 1) of 8.05, a pIC50 (MDA-MB-231) of 6.52 and a pIC50 (MCF7) of 6.89.

For `O=C(NO)c1ccc(-c2ccc(CNCc3ccc4c(c3)OCCO4)cn2)s1`, the pIC50 (Histone deacetylase 1) was 7.96, the pIC50 (MCF7) was 7.30 and the pIC50 (HCT-116) was 7.05.

With `O=C(NO)c1ccc(-c2ccc(CNCc3ccc(-c4ccccc4)cc3)cn2)s1` the pIC50 (Histone deacetylase 1) was 8.15, the pIC50 (MCF7) was 6.82 and the pIC50 (HCT-116) was 6.74.

In the case of `O=C(NO)c1ccc(-c2ccc(CNc3ccccc3)cn2)s1`, the pIC50 (Histone deacetylase 1) was 7.80, the pIC50 (MDA-MB-231) was 6.20 and the pIC50 (MCF7) was 6.43.

`O=C(NO)c1ccc(-c2ccc(CCNCCc3ccccc3)cn2)s1` showed a pIC50 (Histone deacetylase 1) of 7.51 and a pIC50 (MCF7) of 6.85.

Compound `O=C(NO)c1ccc(-c2ccc(CCNCc3ccc(F)cc3)cn2)s1` has a pIC50 (Histone deacetylase 1) of 7.89, a pIC50 (MCF7) of 7.05 and a pIC50 (HCT-116) of 6.85.

For `O=C(NO)c1ccc(-c2cccc(CNCc3ccccc3)n2)s1`, the pIC50 (Histone deacetylase 1) was 6.44 and the pIC50 (MCF7) was 5.72.

With `O=C(NO)c1ccc(-c2ccc(CNCCc3c[nH]c4ccccc34)cn2)s1` the pIC50 (Histone deacetylase 1) was 8.10, the pIC50 (MCF7) was 6.92 and the pIC50 (HCT-116) was 6.74.

`COc1ccccc1CCNCc1ccc(-c2ccc(C(=O)NO)s2)nc1` showed a pIC50 (Histone deacetylase 1) of 7.77, a pIC50 (MCF7) of 7.22 and a pIC50 (HCT-116) of 7.10.

Work on `O=C(NO)c1ccc(-c2ccc(CNCc3ccccc3Cl)cn2)s1` yielded a pIC50 (Histone deacetylase 1) of 8.15, a pIC50 (MDA-MB-231) of 6.77 and a pIC50 (MCF7) of 6.96.

Work on `O=C(NO)c1ccc(-c2ccc(CN3CCc4ccccc4C3)cn2)s1` yielded a pIC50 (Histone deacetylase 1) of 7.52, a pIC50 (MDA-MB-231) of 6.07 and a pIC50 (MCF7) of 6.66.

Work on `O=C(NO)c1ccc(-c2ccc(CNCCOc3ccccc3)cn2)s1` yielded a pIC50 (Histone deacetylase 1) of 7.96, a pIC50 (MDA-MB-231) of 6.52 and a pIC50 (MCF7) of 6.96.

For `O=C(NO)c1ccc(-c2ccc(CNCCc3ccccc3Cl)cn2)s1`, the pIC50 (Histone deacetylase 1) was 8.22, the pIC50 (MCF7) was 7.10 and the pIC50 (HCT-116) was 7.10.

Work on `O=C(NO)c1ccc(-c2ccc(NCCc3ccccc3)cn2)s1` yielded a pIC50 (Histone deacetylase 1) of 7.10, a pIC50 (MDA-MB-231) of 5.45 and a pIC50 (MCF7) of 5.83.

For `Cc1cccc(CCNCc2ccc(-c3ccc(C(=O)NO)s3)nc2)c1`, the pIC50 (Histone deacetylase 1) was 8.05, the pIC50 (MCF7) was 7.22 and the pIC50 (HCT-116) was 7.05.

`Cc1ccccc1CCNCc1ccc(-c2ccc(C(=O)NO)s2)nc1` gave a pIC50 (Histone deacetylase 1) of 8.10, a pIC50 (MCF7) of 7.05 and a pIC50 (HCT-116) of 7.15.

With `O=C(CCCCCCC(=O)Nc1ccccc1)NO` [VORINOSTAT] the AUC [1] was 600 ng·h/mL, the inhibition at 1 µM (CYP2D6) was 8% and the AUC [2] was 400 ng·h/mL. It also gave an inhibition at 1 µM (CYP2C19) of 14%, a bioavailability [3] of 61% and a half-life ([4]; mouse) of 48 min. For the same compound, the half-life ([4]; rat) was 42 min, the Vd ([5]; mouse) was 2.1 L/kg and the Vd ([5]; rat) was 1.6 L/kg. For the same compound, the inhibition at 1 µM (CYP2C9) was 28%, the bioavailability ([6]; mouse) was 14% and the bioavailability ([6]; rat) was 16%. The clearance ([7]; mouse) was 78 mL/min/kg, the clearance ([7]; rat) was 67 mL/min/kg and the “%R” value ([8]; human) was 97%. For the same compound, the “%R” value ([8]; mouse) was 114%, the AUC [9] was 200 ng·h/mL and the Papp [10] was 8 ×10⁻⁶ cm/s. The inhibition at 1 µM (CYP1A2) was 14%, the Hepatocyte stability ([11]; human) was 3 uL/min/10e6 cells and the Hepatocyte stability ([11]; rat) was 12 uL/min/10e6 cells.
